Several values for one entry are separate records, joined by “and”; a condition that tells them apart may be missing. Identical values can stand only once.
Assays:
Format in all cases: in vivo, human
[1] = test system: MDX186 Mini-PDX models (conditional reprogramming cells from a pancreatic cancer patient); assay: Anti-tumor efficacy in MDX186 Mini-PDX model; details: Mini-PDX devices s.c. in nude mice, CTG cell viability day 7, doses, routes and schedules per Table 13
From the text: (§2) Conditional reprogramming cells from MDX133, MDX154, MDX164, MDX165, MDX168, MDX169, MDX174, MDX186, MDX189, MDX203 were collected separately. MDX133 originated from a gastric cancer patient, MDX154 model originated from a gallbladder carcinoma patient, MDX164 model originated from a glioblastoma patient, MDX165 model originated from a glioblastoma patient, MDX168 model originated from a gallbladder carcinoma patient, MDX169 model originated from a lung cancer patient, MDX174 model originated from a lung cancer patient, MDX186 model originated from a pancreatic cancer patient, MDX189 model originated from a esophagus cancer patient, MDX203 model originated from a gallbladder carcinoma patient.
(§3) Wash the tumor tissue sample with buffer solution and remove away non-tumor tissue and necrotic tumor tissue in biosafety cabinet. Cut the tumor into 1˜3 mm3 fragments, suspend pellet with 1× collagenase solution and incubate in 37° C. for 1-2 hours. Collect single cells through 70 uM strainer, count cell numbers to calculate tumor cell concentration (See 9. Tumor cell concentration obtained from surgery and biopsy/needle biopsy). Cultivate the cells with conditional reprogramming medium, after tumor cells proliferation, and harvest the conditional reprogramming cells.
(§4) Suspend tumor tissues obtained from biopsy/needle biopsy in 1× collagenase solution and incubate in 37° C. for 1-2 hours. Collect single cells through 70 uM strainer, count cell numbers to calculate tumor cell concentration (See 9. Tumor cell concentration obtained from surgery and biopsy/needle biopsy). Cultivate the cells with conditional reprogramming medium, after tumor cells proliferation, and harvest the conditional reprogramming cells.
(§5) The cells suspension was filled into Mini-PDX device and the devices were inoculated subcutaneously into both flanks of Nu/Nu-nude mice, to establish the Mini-PDX model. The inoculation day was defined as day 0. Mice were randomized in groups according to the bodyweights and the treatments were initiated at day 0.
(§6) • 6.4.1 Body weight were measured every day, the treatment periods of these studies were 7 days, at the termination, all mice were euthanized and the Mini-PDX devices were removed for CTG (cell viability) assay. Tumor relative proliferation rate (%) is the indication of the anti-tumor activity. • 6.4.2 When VCd7−Vd0>0, Tumor relative proliferation rate (%)=(VTd7−Vd0)/(VCd7−Vd0)×100%; When VCd7−Vd0<0, Tumor relative proliferation rate (%)=VTd7/VCd7×100% (VTd7: the cell viability on day 7 of treatment group; VCd7: the cell viability on day 7 of control group; Vdo: the cell viability on day 0).

[2] = test system: MDX123 Mini-PDX models (conditional reprogramming cells from a colonrectal cancer patient); assay: Anti-tumor efficacy in MDX123 Mini-PDX model; details: Mini-PDX devices s.c. in nude mice, CTG cell viability day 7, i.p., doses and schedules per Table 5
From the text: (§1) The inoculation day was defined as day 0.

[3] = test system: MDX203 Mini-PDX models (conditional reprogramming cells from a gallbladder carcinoma patient); assay: Anti-tumor efficacy in MDX203 Mini-PDX model; details: Mini-PDX devices s.c. in nude mice, CTG cell viability day 7, doses, routes and schedules per Table 15
From the text: as §2, §3, §4, §5, §6

[4] = test system: MDX154 Mini-PDX models (conditional reprogramming cells from a gallbladder carcinoma patient); assay: Anti-tumor efficacy in MDX154 Mini-PDX model; details: Mini-PDX devices s.c. in nude mice, CTG cell viability day 7, doses, routes and schedules per Table 7
From the text: as §1

[5] = test system: MDX095 Mini-PDX models (conditional reprogramming cells from a peritoneal malignant tnesoshelioma patient); assay: Anti-tumor efficacy in MDX095 Mini-PDX model; details: Mini-PDX devices s.c. in nude mice, CTG cell viability day 7, i.p., doses and schedules per Table 3
From the text: Conditional reprogramming cells from […]123 were collected separately. […] The inoculation day was defined as day 0.

[6] = test system: MDX168 Mini-PDX models (conditional reprogramming cells from a gallbladder carcinoma patient); assay: Anti-tumor efficacy in MDX168 Mini-PDX model; details: Mini-PDX devices s.c. in nude mice, CTG cell viability day 7, doses, routes and schedules per Table 10
From the text: as §2, §3, §4, §5, §6

[7] = test system: MDX133 Mini-PDX models (conditional reprogramming cells from a gastric cancer patient); assay: Anti-tumor efficacy in MDX133 Mini-PDX model; details: Mini-PDX devices s.c. in nude mice, CTG cell viability day 7, doses, routes and schedules per Table 6
From the text: as §2, §3, §4, §5, §6

[8] = test system: MDX164 Mini-PDX models (conditional reprogramming cells from a glioblastoma patient); assay: Anti-tumor efficacy in MDX164 Mini-PDX model; details: Mini-PDX devices s.c. in nude mice, CTG cell viability day 7, 50 mg/kg p.o. qd*5
From the text: as §1

[9] = test system: MDX165 Mini-PDX models (conditional reprogramming cells from a glioblastoma patient); assay: Anti-tumor efficacy in MDX165 Mini-PDX model; details: Mini-PDX devices s.c. in nude mice, CTG cell viability day 7, 50 mg/kg p.o. qd*5
From the text: as §1

Row | Compound | T/C % (Tumor relative proliferation rate) [1] | T/C % (Tumor relative proliferation rate) [2] | T/C % (Tumor relative proliferation rate) [3] | T/C % (Tumor relative proliferation rate) [4] | T/C % (Tumor relative proliferation rate) [5] | T/C % (Tumor relative proliferation rate) [6] | T/C % (Tumor relative proliferation rate) [7] | further results
1 | O=c1[nH]cc(F)c(=O)[nH]1 [5-Fu] | 90% | 75% | 83% | 111% | 80% | 146% | 103% | –
2 | N.N.[Cl][Pt][Cl] [Cisplatin] | – | – | – | – | 128% | – | – | –
3 | COc1cccc2c1C(=O)c1c(O)c3c(c(O)c1C2=O)C[C@@](O)(C(=O)CO)C[C@@H]3O[C@H]1C[C@H](N)[C@@H](O)[C@H](C)O1 [Epirubicin] | – | – | – | – | 120% | – | – | –
4 | COc1cc([C@@H]2c3cc4c(cc3[C@@H](O[C@@H]3O[C@@H]5CO[C@@H](C)O[C@H]5[C@H](O)[C@H]3O)[C@H]3COC(=O)[C@H]23)OCO4)cc(OC)c1O [Etoposide] | – | – | – | – | 109% | – | – | –
5 | Nc1ccn([C@@H]2O[C@H](CO)[C@@H](O)C2(F)F)c(=O)n1 [Gemcitabine] | 83% | – | 77% | 100% | – | 53% | – | –
6 | CCc1c2c(nc3ccc(OC(=O)N4CCC(N5CCCCC5)CC4)cc13)-c1cc3c(c(=O)n1C2)COC(=O)[C@]3(O)CC [Irinotecan] | 5% | 68% | 48% | 227% | – | 12% | 72% | –
7 | O=C1[O][Pt]2([NH][C@@H]3CCCC[C@H]3[NH]2)[O]C1=O [Oxaliplatin] | 47% | 61% | 43% | 174% | – | 75% | 89% | –
8 | CC(=O)O[C@H]1C(=O)[C@@]2(C)[C@H]([C@H](OC(=O)c3ccccc3)[C@]3(O)C[C@H](OC(=O)[C@H](O)[C@@H](NC(=O)c4ccccc4)c4ccccc4)C(C)=C1C3(C)C)[C@]1(OC(C)=O)CO[C@@H]1C[C@@H]2O [Paclitaxel] | – | – | – | – | 79% | – | 52% | –
9 | Cc1nc2ccc(CN(C)c3ccc(C(=O)N[C@@H](CCC(=O)O)C(=O)O)s3)cc2c(=O)[nH]1 [Raltitrexed] | – | 92% | – | – | – | – | – | –
10 | Cn1nnc2c(C(N)=O)ncn2c1=O [Temozolomide] | – | – | – | – | – | – | – | T/C % (Tumor relative proliferation rate) [8]: 102%; T/C % (Tumor relative proliferation rate) [9]: 29%
11 | Bevazulimab: Test drug of the MDX123 groups, printed Bevacizumab in Table 5 | – | 76% and 101% | – | – | – | – | – | –

Source: US20210047622A1, “METHOD FOR OBTAINING AN ANIMAL MODEL FROM CONDITIONALLY REPROGRAMMED CELLS AND USE OF THE ANIMAL MODEL FOR SCREEING ANTI-TUMOR DRUGS” (Shanghai Lide Biotech Co., Ltd., priority 2018, published 2021)
